Laboratory results: patent US7405222B2, “Methods and compositions for treatment of erectile dysfunction” (Modular Properties, Ltd., priority 2002, dated 2008)
Values belong to the compound of their own block, whether it stands above or below them.

Assays:
[1] = Text: Suitable pharmaceutical vehicles are well known to those skilled in the art and are described in several manuals, including Remington's Pharmaceutical Sciences, 15th edition. […] Similarly, formulations containing PGE1, papaverine, phentolamine and atropine, should be kept under refrigeration.
[2] = tested on: male erectile dysfunction; conditions: in vivo; cited from earlier work
[3] = in vivo; cited from earlier work
[4] = tested on: male erectile dysfunction; conditions: monotherapy or combination as stated; cited from earlier work
[5] = tested on: male erectile dysfunction; conditions: intranasal; cited from earlier work

stability in storage [1]: not stable in water at room temperature
SMILES: CCCCC[C@H](O)/C=C/[C@H]1[C@H](O)CC(=O)[C@@H]1CCCCCCC(=O)O [PGE1, Prostaglandin E1]
subjects with significant pain [2]: up to 40%
half life [3]: short half life compared with papaverine and phentolamine

SMILES: Cc1ccc(N(CC2=NCCN2)c2cccc(O)c2)cc1 [Phentolamine, phentolamine]
erectile response [4]: does not reliably produce an erection sufficient for intercourse

SMILES: COc1ccc(Cc2nccc3cc(OC)c(OC)cc23)cc1OC [papaverine]
erectile response [4]: unpredictable response

SMILES: CCCc1nn(C)c2c(=O)[nH]c(-c3cc(S(=O)(=O)N4CCN(C)CC4)ccc3OCC)nc12 [sildenafil]
time to response in producing an erection [5]: within five minutes
